The compounds below were run on rhythmic bladder contractions in rats (assay: Inhibitory effect against rhythmic bladder contractions in rats). Settings: anesthetized female SD rats, intravenous, dose 0.003 mg/kg body weight.
Format: in vivo
Description: Inhibitory Effect Against Rhythmic Bladder Contractions in Rats
Female SD rats were anesthetized with an intraperitoneal administration of urethane (1.0 g/kg). A polyethylene tube was inserted from the urethra to the bladder and the tube was fixed by ligation. Then physiological saline was appropriately infused (infusion rate: about 0.2 ml/min., maximum: about 1.5 ml/animal) through the tube to cause rhythmic bladder contractions. The rhythmic bladder contractions were monitored by measuring the intravesical pressure through a polyethylene tube inserted into the bladder. After confirming that stable rhythmic bladder contractions occurred at least 10 times, a vehicle containing a prescribed dose of a test compound was intravenously administration at a dose of 1 ml/kg. In cases where the intravesical pressure, within 10 minutes after the administration of the test compound, decreased to 50% or less of the intravesical pressure immediately […] the administration, the test compound was judged as having inhibitory effect against urinary bladder contractions, and the time period until the intravesical pressure returned to more than 50% was defined as inhibitory time of rhythmic bladder contractions. As the vehicle for administration, physiological saline was used for test compounds 4, 7, 8, 9, 10, 13, 29, 30, 31, 33, 34, 75, 76, 79, 80, 81, 82, 84, 89, 90, 91, 93, 94, 95, 110 and 111, aqueous 10% dimethylsulfoxide (DMSO) solution was used for test compounds 11, 12, 14, 15, 16, 17, 18, 20, 21, 23, 28, 46, 47, 50, 55, 56, 57, 58, 59, 60, 61, 62, 63, 64, 65, 66, 68, 69, 70, 71, 72, 73, 74, 77, 78, 83, 85, 86, 87, 88, 92, 96, 97, 98, 99, 100, […], 103, 104, 105, 106, 107, 108 and […], aqueous 20% dimethylsulfoxide (DMSO) solution was used for test compounds 1, 2, 67 and 101, and aqueous 5% xylitol solution was used for test compounds 5 and 35. The aqueous 10% DMSO solution, aqueous 20% DMSO solution and the aqueous 5% xylitol solution per se, which may influence on the inhibitory time of rhythmic bladder contractions, were also tested at a dose of 1 ml/kg. With any of the compounds, prolongation of the inhibitory time of rhythmic bladder contractions was observed when compared with that obtained in the group to which the vehicle alone was administered.
For `O=C1C2=C(CCCC2)C(=O)N1C1CC[C@@]2(O)[C@H]3Cc4ccc(O)c5c4[C@@]2(CCN3CC2CC2)[C@H]1O5` (stereo in doubt) [Compound 72, N-(17-cyclopropylmethyl-4,5α-epoxy-3,14-dihydroxymorphinan-6α-yl)-3,4,5,6-tetrahydrophthalimide], the “Mean Inhibitory Time of Rhythmic Bladder Contractions” value (from here on “Mean Inhibitory Time”) was 26.7 min.

Same assay, conditions: anesthetized female SD rats, intravenous, dose 0.005 mg/kg body weight
For `O=C1c2ccccc2C(=O)N1[C@@H]1CC[C@@]2(O)[C@H]3Cc4ccc(O)c5c4[C@@]2(CCN3CC2CC2)[C@H]1O5` [Compound 11, N-(17-cyclopropylmethyl-4,5α-epoxy-3,14-dihydroxy-morphinan-6β-yl)-phthalimide], the “Mean Inhibitory Time” value was 15.5 min.
In the case of `O=C1c2ccc(F)cc2C(=O)N1[C@@H]1CC[C@@]2(O)[C@H]3Cc4ccc(O)c5c4[C@@]2(CCN3CC2CC2)[C@H]1O5` [Compound 16, N-(17-cyclopropylmethyl-4,5α-epoxy-3,14-dihydroxy-morphinan-6β-yl)-4-fluorophthalimide], the “Mean Inhibitory Time” value is reported as 14.8 min.
For `O=C1c2cccc(F)c2C(=O)N1[C@@H]1CC[C@@]2(O)[C@H]3Cc4ccc(O)c5c4[C@@]2(CCN3CC2CC2)[C@H]1O5` [Compound 17, N-(17-cyclopropylmethyl-4,5α-epoxy-3,14-dihydroxy-morphinan-6β-yl)-3-fluorophthalimide], the “Mean Inhibitory Time” value was 13.2 min.

Same assay, conditions: anesthetized female SD rats, intravenous, dose 0.01 mg/kg body weight
In the case of `O=C1c2ccc(Cl)cc2C(=O)N1[C@@H]1CC[C@@]2(O)[C@H]3Cc4ccc(O)c5c4[C@@]2(CCN3CC2CC2)[C@H]1O5` [Compound 15, N-(17-cyclopropylmethyl-4,5α-epoxy-3,14-dihydroxy-morphinan-6β-yl)-4-chlorophthalimide], the “Mean Inhibitory Time” value is reported as 12.2 min.
`Cc1cccc2c1C(=O)N([C@@H]1CC[C@@]3(O)[C@H]4Cc5ccc(O)c6c5[C@@]3(CCN4CC3CC3)[C@H]1O6)C2=O` [Compound 18, N-(17-cyclopropylmethyl-4,5α-epoxy-3,14-dihydroxy-morphinan-6β-yl)-3-methylphthalimide] was tested, and the “Mean Inhibitory Time” value was 13.7 min.

Same assay, conditions: anesthetized female SD rats, intravenous, dose 0.03 mg/kg body weight
`Cc1ccc2c(c1)C(=O)N([C@@H]1CC[C@@]3(O)[C@H]4Cc5ccc(O)c6c5[C@@]3(CCN4CC3CC3)[C@H]1O6)C2=O` [Compound 12, N-(17-cyclopropylmethyl-4,5α-epoxy-3,14-dihydroxy-morphinan-6β-yl)-4-methylphthalimide] was tested, and the “Mean Inhibitory Time” value was 16.5 min.
With `C=CCN1CC[C@]23c4c5ccc(O)c4O[C@H]2[C@H](N2C(=O)c4ccccc4C2=O)CC[C@@]3(O)[C@H]1C5` [Compound 13, N-(17-allyl-4,5α-epoxy-3,14-dihydroxy-morphinan-6β-yl)-phthalimide] the “Mean Inhibitory Time” value was 11.7 min.

Same assay, conditions: anesthetized female SD rats, intravenous, dose 0.1 mg/kg body weight
`CN1CC[C@]23c4c5ccc(O)c4O[C@H]2[C@H](N2CCCc4ccccc42)CC[C@H]3[C@H]1C5` [Compound 1, 4,5α-epoxy-6β-tetrahydroquinolino-17-methyl-morphinan-3-ol] was tested, and the “Mean Inhibitory Time” value was 11.7 min.
`CN1CC[C@]23c4c5ccc(O)c4O[C@H]2[C@H](N2CCSc4ccccc42)CC[C@H]3[C@H]1C5` [Compound 2, 4,5α-epoxy-6β-(3,4-dihydro-2H-benzo[1,4]thiazino)-17-methyl-morphinan-3-ol] was tested, and the “Mean Inhibitory Time” value was 15.5 min.
In the case of `CN1CC[C@]23c4c5ccc(O)c4O[C@H]2[C@H](N2CCOc4ccccc42)CC[C@H]3[C@H]1C5` [Compound 4, 4,5α-epoxy-6β-(3,4-dihydro-2H-benzo [1,4]oxazino)-17-methyl-morphinan-3-ol], the “Mean Inhibitory Time” value is reported as 15.6 min.
`Oc1ccc2c3c1O[C@H]1[C@H](N4CCc5ccccc54)CC[C@@]4(O)[C@@H](C2)N(CCc2ccccc2)CC[C@]314` [Compound 5, 4,5α-epoxy-6β-indolino-17-phenethyl-morphinan-3,14-diol] was tested, and the “Mean Inhibitory Time” value was 9.9 min.
In the case of `CN1CCN([C@@H]2CC[C@@]3(O)[C@H]4Cc5ccc(O)c6c5[C@@]3(CCN4C)[C@H]2O6)c2ccccc21` [Compound 9, 4,5α-epoxy-6β-(3,4-dihydro-1-methyl-1H-quinoxalino)-17-methyl-morphinan-3,14-diol], the “Mean Inhibitory Time” value is reported as 9.1 min.

Same assay, conditions: anesthetized female SD rats, intravenous, dose 0.3 mg/kg body weight
For `CN1C(=O)CN([C@@H]2CC[C@@]3(O)[C@H]4Cc5ccc(O)c6c5[C@@]3(CCN4C)[C@H]2O6)c2ccccc21` [Compound 8, 4-(4,5α-epoxy-3,14-dihydroxy-17-methyl-morphinan-6β-yl)-1-methyl-3,4-dihydro-1H-quinoxalino-2-one], the “Mean Inhibitory Time” value was 6.8 min.
In the case of `CN1CC[C@]23c4c5ccc(O)c4O[C@H]2[C@H](N2CCOCc4ccccc42)CC[C@H]3[C@H]1C5` [Compound 10, 4,5α-epoxy-6β-(1,2,3,5-tetrahydro-benzo[e][1,4]oxazepino)-17-methyl-morphinan-3-ol], the “Mean Inhibitory Time” value is reported as 7.8 min.
With `O=C1c2ccccc2CN1[C@@H]1CC[C@@]2(O)[C@H]3Cc4ccc(O)c5c4[C@@]2(CCN3CC2CC2)[C@H]1O5` [Compound 28, 2-(17-cyclopropylmethyl-4,5α-epoxy-3,14-dihydroxy-morphinan-6β-yl)-2,3-dihydro-isoisoindol-1-one] the “Mean Inhibitory Time” value was 19.6 min.

Same assay, conditions: anesthetized female SD rats, intravenous, dose 1.0 mg/kg body weight
With `CN1CC[C@]23c4c5ccc(O)c4O[C@H]2[C@H](N2CC(=O)Nc4ccccc42)CC[C@@]3(O)[C@H]1C5` [Compound 7, 4-(4,5α-epoxy-3,14-dihydroxy-17-methyl-morphinan-6β-yl)-3,4-dihydro-1H-quinoxalino-2-one] the “Mean Inhibitory Time” value was 3.8 min.
For `O=C1c2ccccc2C(=O)N1[C@@H]1CC[C@@]2(O)[C@H]3Cc4ccc(O)c5c4[C@@]2(CCN3)[C@H]1O5` [Compound 14, N-(4,5α-epoxy-3,14-dihydroxy-morphinan-6β-yl)-phthalimide], the “Mean Inhibitory Time” value was 7.9 min.
`O=C1CCC(=O)N1[C@@H]1CC[C@@]2(O)[C@H]3Cc4ccc(O)c5c4[C@@]2(CCN3CC2CC2)[C@H]1O5` [Compound 20, N-(17-cyclopropylmethyl-4,5α-epoxy-3,14-dihydroxy-morphinan-6β-yl)-succinimide] was tested, and the “Mean Inhibitory Time” value was 18.1 min.
With `O=C1C/C(=C\c2ccccc2)C(=O)N1[C@@H]1CC[C@@]2(O)[C@H]3Cc4ccc(O)c5c4[C@@]2(CCN3CC2CC2)[C@H]1O5` [Compound 21, N-(17-cyclopropylmethyl-4,5α-epoxy-3,14-dihydroxy-morphinan-6β-yl)-2-benzylidene-succinimide] the “Mean Inhibitory Time” value was 19.0 min.
With `O=C1C/C(=C\C2CCCCC2)C(=O)N1[C@@H]1CC[C@@]2(O)[C@H]3Cc4ccc(O)c5c4[C@@]2(CCN3CC2CC2)[C@H]1O5` [Compound 23, N-(17-cyclopropylmethyl-4,5α-epoxy-3,14-dihydroxy-morphinan-6β-yl)-2-cyclohexylmethylidene-succinimide] the “Mean Inhibitory Time” value was 32.0 min.
For `CCN(CC)C(=O)[C@@H]1CCCN1[C@@H]1CC[C@@]2(O)[C@H]3Cc4ccc(O)c5c4[C@@]2(CCN3C)[C@H]1O5` [Compound 29, 1-(4,5α-epoxy-3,14-dihydroxy-17-methyl-morphinan-6β-yl)-pyrrolidin-(2S)-carboxyl diethylamide], the “Mean Inhibitory Time” value was 0.8 min.
In the case of `CCN(CC)C(=O)[C@@H]1CCCN1[C@H]1CC[C@H]2[C@H]3Cc4ccc(O)c5c4[C@@]2(CCN3C)[C@H]1O5` [Compound 31, 1-(4,5α-epoxy-3-hydroxy-17-methyl-morphinan-6α-yl)-pyrrolidin-(2S)-carboxyl diethylamide], the “Mean Inhibitory Time” value is reported as 1.0 min.
In the case of `O=C1CCCN1[C@H]1CC[C@@]2(O)[C@H]3Cc4ccc(O)c5c4[C@@]2(CCN3CC2CC2)[C@H]1O5` [Compound 34, 1-(17-cyclopropylmethyl-4,5α-epoxy-3,14-dihydroxy-morphinan-6α-yl)-pyrrolidin-2-one], the “Mean Inhibitory Time” value is reported as 9.2 min.

Same assay, conditions: anesthetized female SD rats, intravenous, dose 3.0 mg/kg body weight
With `CCN(CC)C(=O)[C@H]1CCCN1[C@@H]1CC[C@@]2(O)[C@H]3Cc4ccc(O)c5c4[C@@]2(CCN3C)[C@H]1O5` [Compound 30, 1-(4,5α-epoxy-3,14-dihydroxy-17-methyl-morphinan-6β-yl)-pyrrolidin-(2R)-carboxyl diethylamide] the “Mean Inhibitory Time” value was 2.3 min.
With `CCN(CC)C(=O)C1CCCN([C@@H]2CC[C@@]3(O)[C@H]4Cc5ccc(O)c6c5[C@@]3(CCN4C)[C@H]2O6)C1` (stereo partly drawn) [Compound 33, 1-(4,5α-epoxy-3,14-dihydroxy-17-methyl-3-morphinan-6β-yl)-piperidin-3-carboxyl diethylamide] the “Mean Inhibitory Time” value was 2.1 min.

From US7320984B2, “Remedies or preventives for urinary frequency or urinary incontinence and morphinan derivatives having nitrogen-containing heterocyclic group” (Toray Industries, Inc., priority 2002, dated 2008)
